The record followed here is patent publication US9198415B2, “Plant irrigation methods” (Syngenta Participations AG, priority 2010, dated 2015).

Common to all, as to format: in vivo
For assay [1], the system named is Corn plants. The experiment in a line: Corn in 55-gal lysimeter containers, sub-surface chemigation, deficit water conditions, yield and root architecture. The note with it: maximum labeled rate; for Yield (% difference from UTC): sub-surface chemigation at V3/V4, deficit water (50% plant-available water), 12 plants; for Relative number of fine roots (% difference from UTC): sub-surface chemigation at V3/V4, deficit water, measured within 2 weeks of harvest by digital imaging. From the text:
In this experiment, standardized growth conditions were applied across all corn treatments including: soil-water availability, soil texture and composition, soil chemical and physical properties, meteorological and environmental parameters, and plant nutrition in a greenhouse. No indication of plant disease or pest damage was observed over the course of the study and no pest management program was necessary. A homogeneous sand-organic matter soil mixture (0.18% organic matter) was used as the growth medium in 55-gal containers. These containers were used as a weighing lysimeter, where daily changes in system weight were used to calculate plant transpiration. Four corn plants were grown in each 55-gal container. Three 55-gal containers (12 plants total) made up each treatment. All irrigation and chemical treatments were applied via sub-surface irrigation. Chemical treatments consisted of: azoxystrobin (Quadris), paclobutrazol (Trimmit), trinexapac-ethyl (Moddus), and propiconazole (Tilt) at maximum labeled rates.
Corn plants were grown from seed and transplanted in the 55-gal drums approximately 14 days after planting. Uniform adequate irrigation was applied up to growth stage V3/V4 to ensure plant establishment. Chemical treatment applications were applied at growth stage V3/V4 via sub-surface chemigation. At stage V3/V4, irrigation was decreased to replicate deficit water conditions across all treatments for the remainder of the study period. Irrigation was managed daily to maintain 50% plant-available water. Visual signs of abiotic plant stress were observed approximately 30 days after chemical application. All corn plants were grown to yield and cobs were harvested when kernels were uniformly dry (15% moisture content). Root architecture, specifically relative number of fine roots, was measured at within 2 weeks of harvest using a digital imaging technique. Fine roots are related to water uptake productivity, which is directly tied to the ability of the plant to access soil-water under stress.
Effects of the chemical treatments via sub-surface irrigation on yield and root architecture were specifically documented. The effects are herein reported as the percentage increase compared to the untreated check (12 plants in three containers). […] Azoxystrobin, paclobutrazol, and trinexapac-ethyl were statistically different from the control (P values: <0.001 at the 95th percentile confidence interval).

In assay [2] the test system is Soybean plants. The assay is described as follows: Soybean plants in pouches, drench application, drought stress and rewatering, shoot dry weight. The note with it: for Total Shoot Weight: 6 days drought, shoot dry weight 2 days after rewatering, 40 plants, untreated check 4.3 g. Here is the method:
Soybean plants were grown in pouches (in filter paper bags) and either BION or Thiamethoxam was applied to the water at different rates (see FIG. 2). Sowing and drench application of the compounds occurred simultaneously. After 8 days of optimal growth, the pouches went dry and plants were grown under drought stress conditions for 6 days. At the end of the drought period, plants were rewatered and shoot dry weight was determined 2 days later (Table 2). In total, 40 plants per treatment and 40 untreated check plants were assessed.

Assay [3] concerns Soybean plants. The experiment in a line: Soybean plants in pouches, drench application, severe drought stress, qualitative ranking of physiological state. The note with it: for Plant physiological state: Desiccated (number of plants in %) / Plant physiological state: Slightly withered (number of plants in %) / Plant physiological state: Strongly withered (number of plants in %) / Plant physiological state: Turgescent (number of plants in %): evaluation 14 days after application. The method, then:
Soybean plants were grown in pouches (in filter paper bags), and 100 plants each were treated with BION at 3 rates (60, 20, 2 ppm), added to the drench water. Sowing and drench application of BION occurred simultaneously. After 8 days of optimal growth, the pouches went dry and plants were grown for several days under severe drought stress conditions until evaluation (14 days after application). A qualitative assessment was carried out, ranking the plants behaviour into four categories corresponding to four different physiological states (turgescent, slightly withered, strongly withered and desiccated) (Table 1)

The mark [4] stands for this setting: 2 ppm in drench water, severe drought.
The mark [5] stands for this setting: 20 ppm in drench water, severe drought.
Where [6] appears, read: 60 ppm in drench water, severe drought.

SMILES strings stand for the structures. Marks after values point to notes of the source that are not given here.

Turning to `CC(C)(C)[C@@H](O)[C@@H](Cc1ccc(Cl)cc1)n1cncn1` (racemic) [Paclobutrazol, (2RS,3RS)-1-(4-chlorophenyl)-4,4-dimethyl-2-(1H-1,2,4-triazol-1-yl)pentan-3-01], in assay [1], the “Yield (% difference from UTC)” value is recorded as 16.6† % and the “Relative number of fine roots (% difference from UTC)” value is listed as 70.0† %.
As for `CO/C=C(/C(=O)OC)c1ccccc1Oc1cc(Oc2ccccc2C#N)ncn1` [Azoxystrobin], in assay [1], the “Yield (% difference from UTC)” value was 12.5† % and the “Relative number of fine roots (% difference from UTC)” value is listed as 37.3† %.
In the same order, the values of `CCCC1COC(Cn2cncn2)(c2ccc(Cl)cc2Cl)O1` (stereo not drawn) [Propiconazole] are 3.3% and 39.4† %.
As to `CCOC(=O)C1CC(=O)C(=C(O)C2CC2)C(=O)C1` (stereo not drawn) [Trinexapac-ethyl], in assay [1], the “Yield (% difference from UTC)” value is 15.6† % and the “Relative number of fine roots (% difference from UTC)” value is reported as 34.3† %.
Turning to `CN1COCN(Cc2cnc(Cl)s2)/C1=N\[N+](=O)[O-]` [TMX], the “Total Shoot Weight” value is recorded as 4.6 g in assay [2] (3 ppm in water) and 5.8 g in assay [2] (12 ppm in water).
`CSC(=O)c1cccc2nnsc12` [ASM, S-methyl benzo[1,2,3]thiadiazole-7-carbothioate]: the “Plant physiological state: Desiccated (number of plants in %)” value in assay [3] (setting [4]) is on record as 0.0%; in assay [3] (setting [5]), 5.3%; in assay [3] (setting [6]), 0.0%. For the same compound, the “Plant physiological state: Slightly withered (number of plants in %)” value was 70.0% in assay [3] (setting [4]), 7.9% in assay [3] (setting [5]) and 15.2% in assay [3] (setting [6]). For the same compound, the “Plant physiological state: Strongly withered (number of plants in %)” value in assay [3] (setting [4]) was 5.0%; in assay [3] (setting [5]), 2.6%; in assay [3] (setting [6]) it was 0.0%. The “Plant physiological state: Turgescent (number of plants in %)” value in assay [3] (setting [4]) was determined as 25.0%; in assay [3] (setting [5]), 84.2%; in assay [3] (60 ppm in drench water, severe drought, 100 plants), 84.8%. The “Treated plants still fully turgescent at the end of the drought period” value in assay [3] (dose not stated, severe drought) is on record as “more than 80%”. The “Behaviour of treated plants after severe drought compared to untreated check” value in assay [3] (qualitative) was “behaved much better after severe drought”. For the same compound, the “Total Shoot Weight” value is listed as 4.1 g in assay [2] (5 ppm in water) and 5.6 g in assay [2] (15 ppm in water). Further, the “Health of treated plants after drought compared to untreated check” value in assay [2] (qualitative, FIG. 1) is recorded as “behaved extremely healthy”.
